Reference: patent US8143212B2 (Vicuron Pharmaceuticals Inc., priority 2002, dated 2012)
Converted amounts (≈) assume the structure as drawn. Read-outs that look alike come from different tables or passages of the source.

Columns and labels:
S. pneumoniae = assay: Murine thigh-infection model (time kill, dosing regimen, PK/PD, neutrophils; Tables 31-33); assay type: in vivo, mice; conditions: for 1 log kill mg/kg / 2 log kill mg/kg: total dose over 6 days
Procedure: Each point represents the mean of 4 thighs. Five dose levels, ranging 16-fold were used.
Five different doses (two-fold increases) were used. […] Each point represents the mean of 4 thighs.
Each point represents the mean of four thighs.
Each point represents the mean value from 4 thighs. The static dose, and the doses associated with a 1 and 2 log kill were calculated from the parameters estimated by non-linear regression using the Hill equation.

B subtilis = assay: MIC, microbiological activity (Table 3); assay type: cell-based; conditions: L 102 B subtilis ATCC; read-out: MIC
in vivo = conditions: Swiss ICR, mouse, plasma, ip
Procedure: Neutropenia in this and all other studies was produced by injections of cyclophosphamide, 150 mg/kg 4 days prior to study, 100 mg/kg 1 day prior to study and 100 mg/kg every 48 h after start of infection until end of study. Neutrophil counts remained less than 100/mm^3 for the duration of study. Doses of 2.5, 5, 10, 20; 40, and 80 mg/kg were studied. Drug was administered by intraperitoneal injection of 0.2 ml volume. Blood was removed from groups of three mice by retroorbital aspiration into heparinized capillary tubes at 0.5, 1, 2, 4, 6, 24, 48, 72, and 96 hours after dosing. […] AUC was calculated by the trapezoidal rule from mean concentrations.

bacteria = assay: Minimum bactericidal concentration; assay type: cell-based; conditions: in plasma
Source text: The amount of dalbavancin administered may be any of the dosages disclosed herein.

[1] = in vivo
Procedure: Safety was evaluated by the collection and analysis of data on adverse events (AEs), clinical laboratory tests, physical examinations, vital signs, and ECGs.

[2] = human, in vivo
human albumin = human albumin (Homo sapiens, UniProt P02768); conditions: pH 7.4
Chain of human albumin (P02768 25-609): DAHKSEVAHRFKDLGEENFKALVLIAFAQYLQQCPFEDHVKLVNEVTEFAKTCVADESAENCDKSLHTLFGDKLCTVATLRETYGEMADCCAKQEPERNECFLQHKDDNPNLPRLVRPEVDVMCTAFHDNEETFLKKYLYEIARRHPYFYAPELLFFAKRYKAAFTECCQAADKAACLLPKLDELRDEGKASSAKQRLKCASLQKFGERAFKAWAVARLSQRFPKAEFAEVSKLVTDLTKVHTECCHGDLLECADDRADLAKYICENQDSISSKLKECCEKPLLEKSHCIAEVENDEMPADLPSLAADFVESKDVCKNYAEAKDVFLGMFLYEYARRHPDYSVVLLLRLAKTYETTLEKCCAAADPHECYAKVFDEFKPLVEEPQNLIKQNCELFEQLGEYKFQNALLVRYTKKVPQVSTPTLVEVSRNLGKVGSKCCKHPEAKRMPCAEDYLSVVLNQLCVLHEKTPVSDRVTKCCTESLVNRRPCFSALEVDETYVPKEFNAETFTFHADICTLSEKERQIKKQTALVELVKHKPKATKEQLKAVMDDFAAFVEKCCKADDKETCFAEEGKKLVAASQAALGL
Procedure: Integrated heat effects, after correction for heats of dilution, were analyzed by non-linear regression using a simple single-site binding model with the standard Microcal ORIGIN software package. Raw data (μcal/sec) for each injection were integrated to give the total heat effect per addition, then divided by amount of injectant to give kcal/mole of injectant. The same integration was applied for control dilution effects, and this was subtracted from the actual titration data. This provided a differential of the binding curve in which the extent of binding is proportional to the total heat liberated (or absorbed). This was then analyzed by non-linear regression methods in terms of various standard binding models. The simplest model assumes simple non-competitive binding equilibrium, and gives three parameters:

## CN[C@H]1C(=O)N[C@@H]2Cc3ccc(cc3)Oc3cc4cc(c3O[C@@H]3O[C@H](C(=O)O)[C@@H](O)[C@H](O)[C@H]3NC(=O)CCCCCCCCC(C)C)Oc3ccc(cc3Cl)[C@@H](O)[C@@H]3NC(=O)[C@H](NC(=O)[C@@H]4NC(=O)[C@@H](NC2=O)c2cc(cc(O)c2Cl)Oc2cc1ccc2O)c1ccc(O)c(c1)-c1c(O[C@H]2O[C@H](CO)[C@@H](O)[C@H](O)[C@@H]2O)cc(O)cc1[C@@H](C(=O)NCCCN(C)C)NC3=O [Dalbavancin]
S. pneumoniae; SP1293, q 72 h regimen
  Static Effect mg/kg/72 h: 1.01 mg/kg/72 h
S. pneumoniae; SP1325, q 24 h regimen
  1 Log Kill f24AUC/MIC: 31.8
  1 Log Kill mg/kg/24 h: 1.6 mg/kg/24 h
  2 Log Kill f24AUC/MIC: 34.5
  2 Log Kill mg/kg/24 h: 1.73 mg/kg/24 h
  Static Effect f24AUC/MIC: 29.0
  Static Effect mg/kg/24 h: 1.46 mg/kg/24 h
S. pneumoniae; SP1325, q 72 h regimen
  1 Log Kill f24AUC/MIC: 8.8
  1 Log Kill mg/kg/24 h: 0.99 mg/kg/24 h
  2 Log Kill f24AUC/MIC: 17.6
  2 Log Kill mg/kg/24 h: 1.16 mg/kg/24 h
  Static Effect f24AUC/MIC: 6.0
  Static Effect mg/kg/72 h: 0.83 mg/kg/72 h
S. pneumoniae; SP1329, q 24 h regimen
  1 Log Kill f24AUC/MIC: 23.5
  1 Log Kill mg/kg/24 h: 1.18 mg/kg/24 h
  2 Log Kill f24AUC/MIC: 26.7
  2 Log Kill mg/kg/24 h: 1.45 mg/kg/24 h
  Static Effect f24AUC/MIC: 18.0
  Static Effect mg/kg/24 h: 0.90 mg/kg/24 h
S. pneumoniae; SP1396, q 72 h regimen
  1 Log Kill f24AUC/MIC: 4.3
  1 Log Kill mg/kg/24 h: 0.61 mg/kg/24 h
  2 Log Kill f24AUC/MIC: 4.8
  2 Log Kill mg/kg/24 h: 0.69 mg/kg/24 h
  Static Effect f24AUC/MIC: 4.0
  Static Effect mg/kg/72 h: 0.52 mg/kg/72 h
S. pneumoniae; SP10813, q 12 h
  1 log kill mg/kg: 2.8 mg/kg
  2 log kill mg/kg: 3.5 mg/kg
S. pneumoniae; SP10813, q 24 h
  1 log kill mg/kg: 1.54 mg/kg
  2 log kill mg/kg: 1.75 mg/kg
S. pneumoniae; SP10813, q 24 h regimen
  1 Log Kill f24AUC/MIC: 8.7
  1 Log Kill mg/kg/24 h: 1.54 mg/kg/24 h
  2 Log Kill f24AUC/MIC: 9.9
  2 Log Kill mg/kg/24 h: 1.75 mg/kg/24 h
  Static Effect f24AUC/MIC: 7.5
  Static Effect mg/kg/24 h: 1.34 mg/kg/24 h
S. pneumoniae; SP10813, q 36 h
  1 log kill mg/kg: 1.53 mg/kg
  2 log kill mg/kg: 1.81 mg/kg
S. pneumoniae; SP10813, q 72 h
  1 log kill mg/kg: 0.77 mg/kg
  2 log kill mg/kg: 0.82 mg/kg
S. pneumoniae; SP10813, q 72 h regimen
  1 Log Kill f24AUC/MIC: 1.6
  1 Log Kill mg/kg/24 h: 0.77 mg/kg/24 h
  2 Log Kill f24AUC/MIC: 1.6
  2 Log Kill mg/kg/24 h: 0.82 mg/kg/24 h
  Static Effect f24AUC/MIC: 1.4
  Static Effect mg/kg/72 h: 0.71 mg/kg/72 h
S. pneumoniae; all strains, 6 day study
  drop in cfu: > 4 log10
S. pneumoniae; every 24 h dosing
  free drug 24 h AUC/MIC associated with a static effect: 17.6±6.9
S. pneumoniae; over the 6 days of therapy, net static effect, 1 or 2 log kill
  free drug AUC/MIC required for efficacy: ~100
S. pneumoniae; single doses, highest doses studied
  extent of killing: > 2 log
B subtilis
  MIC: < 0.03 µg/mL
In vivo
  half-life: 7.6 to 13.1 h
bacteria
  MBC: ~4 µg/mL (≈ 2.2 µM)
[1]; human
  average difference of effect on QTc values: 7 ms
  patients with AEs that led to discontinuation of study drug: 3%
[1]
  SAE considered to be related to study drug: no SAE
[2]
  plasma concentration, all patients: greater than 20 mg/l
Human albumin; 1 μM
  Calculated percent Binding: 98.8%
Human albumin; 10 μM
  Calculated percent Binding: 98.8%
Human albumin; 100 μM
  Calculated percent Binding: 98.7%
Human albumin; 165 μM
  Calculated percent Binding: 98.6%
Human albumin; 250 μM
  Calculated percent Binding: 98.5%
Human albumin; 500 μM
  Calculated percent Binding: 98.0%
